Measurements as given in patent US11180474B2 (BRISTOL-MYERS SQUIBB COMPANY, priority 2016, dated 2021).

What was measured:
human TLR7 = target: T1, human TLR7 (Homo sapiens, UniProt Q9NYK1); test: TLR7 inhibition reporter assay (HEK-Blue cells, SEAP reporter, gardiquimod stimulation); assay type: cell-based; conditions: HEK-Blue cells overexpressing human TLR7, gardiquimod 7.5 μM
T1 construct: host or cells: HEK-Blue cells
T1 sequence (Q9NYK1 27-1049): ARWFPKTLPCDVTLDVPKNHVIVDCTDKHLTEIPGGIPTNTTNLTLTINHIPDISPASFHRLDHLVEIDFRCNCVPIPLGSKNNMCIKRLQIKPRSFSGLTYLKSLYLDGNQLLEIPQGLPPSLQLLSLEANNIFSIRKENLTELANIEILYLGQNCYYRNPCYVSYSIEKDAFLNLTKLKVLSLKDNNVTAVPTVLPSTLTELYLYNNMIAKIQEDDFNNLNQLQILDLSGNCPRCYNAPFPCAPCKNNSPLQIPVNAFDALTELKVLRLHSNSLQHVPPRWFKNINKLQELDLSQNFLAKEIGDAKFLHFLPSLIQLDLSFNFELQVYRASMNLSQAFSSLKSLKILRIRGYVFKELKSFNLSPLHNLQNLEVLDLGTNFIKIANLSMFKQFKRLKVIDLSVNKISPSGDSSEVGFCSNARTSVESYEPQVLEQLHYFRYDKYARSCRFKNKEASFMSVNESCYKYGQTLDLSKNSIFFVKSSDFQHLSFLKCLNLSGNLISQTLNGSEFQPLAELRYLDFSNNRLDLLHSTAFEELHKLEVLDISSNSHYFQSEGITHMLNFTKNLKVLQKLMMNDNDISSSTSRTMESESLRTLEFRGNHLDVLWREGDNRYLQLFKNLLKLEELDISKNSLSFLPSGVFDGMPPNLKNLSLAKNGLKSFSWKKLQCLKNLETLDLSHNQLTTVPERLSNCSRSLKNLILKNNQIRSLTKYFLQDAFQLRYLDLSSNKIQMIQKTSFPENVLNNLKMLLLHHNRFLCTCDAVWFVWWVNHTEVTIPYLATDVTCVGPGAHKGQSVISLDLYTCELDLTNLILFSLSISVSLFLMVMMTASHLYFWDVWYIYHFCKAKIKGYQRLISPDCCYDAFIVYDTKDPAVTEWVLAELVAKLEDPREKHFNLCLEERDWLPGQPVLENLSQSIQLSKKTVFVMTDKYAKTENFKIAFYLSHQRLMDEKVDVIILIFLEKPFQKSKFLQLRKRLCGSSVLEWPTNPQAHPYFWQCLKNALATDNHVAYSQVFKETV
Procedure, shortened: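 HEK-Blue reporter cells (15,000/well TLR7, 20,000 TLR8) exposed to compound over 0.05 nM–50 μM, agonist-stimulated (R848 for TLR8, gardiquimod for TLR7), 22 h at 37 °C, 5% CO2. SEAP read with HEK-Blue Detection; % inhibition relative to agonist-plus-DMSO and known-inhibitor controls.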

human TLR9 = target: T2, human TLR9 (Homo sapiens, UniProt Q9NR96); test: TLR9 inhibition reporter assay (HEK-Blue cells, SEAP reporter, ODN2006 stimulation); assay type: cell-based; conditions: HEK-Blue cells overexpressing human TLR9, ODN2006 5 nM
T2 construct: host or cells: HEK-Blue cells
T2 sequence (Q9NR96 26-1032): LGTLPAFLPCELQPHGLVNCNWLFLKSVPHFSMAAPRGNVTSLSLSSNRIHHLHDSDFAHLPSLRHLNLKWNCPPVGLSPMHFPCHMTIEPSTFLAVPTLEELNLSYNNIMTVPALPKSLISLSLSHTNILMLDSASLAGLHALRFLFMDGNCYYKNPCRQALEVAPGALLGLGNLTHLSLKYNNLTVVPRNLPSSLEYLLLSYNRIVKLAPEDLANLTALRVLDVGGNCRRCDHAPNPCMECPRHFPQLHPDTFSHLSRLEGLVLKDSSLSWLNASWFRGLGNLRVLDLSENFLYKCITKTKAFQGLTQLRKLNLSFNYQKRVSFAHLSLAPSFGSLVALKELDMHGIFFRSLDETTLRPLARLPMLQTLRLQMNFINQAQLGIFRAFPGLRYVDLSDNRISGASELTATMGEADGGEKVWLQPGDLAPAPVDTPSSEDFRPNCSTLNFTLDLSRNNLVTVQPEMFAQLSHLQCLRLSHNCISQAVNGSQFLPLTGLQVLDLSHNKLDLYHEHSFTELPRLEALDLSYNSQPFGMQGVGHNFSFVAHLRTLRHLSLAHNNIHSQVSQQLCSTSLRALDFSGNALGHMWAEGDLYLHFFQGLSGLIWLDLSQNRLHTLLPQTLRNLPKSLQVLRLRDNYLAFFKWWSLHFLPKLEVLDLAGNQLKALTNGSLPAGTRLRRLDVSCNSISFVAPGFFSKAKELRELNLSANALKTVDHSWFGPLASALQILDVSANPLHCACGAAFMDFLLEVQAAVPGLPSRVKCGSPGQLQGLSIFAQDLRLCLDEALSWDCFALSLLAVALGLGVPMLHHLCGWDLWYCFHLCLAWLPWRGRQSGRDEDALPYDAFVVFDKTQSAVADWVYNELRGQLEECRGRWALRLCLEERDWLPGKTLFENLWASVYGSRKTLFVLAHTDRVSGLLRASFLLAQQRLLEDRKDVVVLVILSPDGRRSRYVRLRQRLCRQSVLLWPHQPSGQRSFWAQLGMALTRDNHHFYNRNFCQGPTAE
Procedure, shortened: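 Agonists used: gardiquimod 7.5 μM (TLR7), R848 15.9 μM (TLR8), ODN2006 5 nM (TLR9), added after 30 min room-temperature compound pre-treatment (0.05 nM–50 μM) of receptor-overexpressing HEK-Blue cells. SEAP reporter (NF-κB/AP-1 driven) read after 22 h at 37 °C; inhibition scaled between agonist+DMSO and reference-inhibitor wells.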

Structure (SMILES)	IC50 (human TLR7) [nM]	IC50 (human TLR9) [nM]
COc1ccc(-c2[nH]c3ccc(C4CCN(C(=O)CN5CCC[C@@H](C(=O)N6CC7CNCC7C6)C5)CC4)cc3c2C(C)C)cc1OC (stereo partly drawn) [Example 310, 1-(4-(2-(3,4-dimethoxyphenyl)-3-isopropyl-1H-indol-5-yl)piperidin-1-yl)-2-((3R)-3-(octahydropyrrolo[3,4-c]pyrrole-2-carbonyl)piperidin-1-yl) ethan-1-one]	290	5230
COc1ccc(-c2[nH]c3ccc(C4CCN(C5CCN(C6CC6)CC5)CC4)cc3c2C)cc1OC [Example 23, 5-(1′-cyclopropyl-[1,4′-bipiperidin]-4-yl)-2-(3,4-dimethoxyphenyl)-3-methyl-1H-indole]	101	154
COc1ccc(-c2[nH]c3ccc(C4CCN(C(=O)CNC5CCC(O)CC5)CC4)cc3c2C(C)C)cc1OC (stereo not drawn) [Example 246, 1-(4-(2-(3,4-dimethoxyphenyl)-3-isopropyl-1H-indol-5-yl)piperidin-1-yl)-2-((4-hydroxycyclohexyl)amino)ethan-1-one]	11	664
COc1ccc(-c2[nH]c3ccc(C4CCNCC4O)cc3c2C(C)C)cc1OC (single isomer, unassigned) [Example 317, 4-(2-(3,4-dimethoxyphenyl)-3-isopropyl-1H-indol-5-yl)piperidin-3-ol 2,2,2-trifluoroacetate]	38	4720
COc1ccc(-c2[nH]c3ccc(C4CCN(C(=O)CN5CCC[C@H](C(=O)N6CCCC(O)C6)C5)CC4)cc3c2C(C)C)cc1OC (stereo partly drawn) [Example 292, 1-(4-(2-(3,4-dimethoxyphenyl)-3-isopropyl-1H-indol-5-yl)piperidin-1-yl)-2-((3S)-3-(3-hydroxypiperidine-1-carbonyl)piperidin-1-yl)ethan-1-one]	22	1810
COc1ccc(-c2[nH]c3ccc(C4CCN(C(=O)CN5CCC[C@H](C(=O)N6CCCC6)C5)CC4)cc3c2C(C)C)cc1OC [Example 287, (S)-1-(4-(2-(3,4-dimethoxyphenyl)-3-isopropyl-1H-indol-5-yl)piperidin-1-yl)-2-(3-(pyrrolidine-1-carbonyl)piperidin-1-yl)ethan-1-one]	38	2280
COc1ccc(-c2[nH]c3ccc(C4CCN(C(=O)CN(C)C(C)C)CC4)cc3c2C(C)C)cc1OC [Example 227, 1-(4-(2-(3,4-dimethoxyphenyl)-3-isopropyl-1H-indol-5-yl)piperidin-1-yl)-2-(isopropyl(methyl)amino) ethan-1-one]	29	1730
COc1ccc(-c2[nH]c3ccc(C4CCN(C(=O)CNC5CCCC5O)CC4)cc3c2C(C)C)cc1OC (stereo not drawn) [Example 236, 1-(4-(2-(3,4-dimethoxyphenyl)-3-isopropyl-1H-indol-5-yl)piperidin-1-yl)-2-((2-hydroxycyclopentyl)amino)ethan-1-one]	29	1380
COc1ccc(-c2[nH]c3ccc(C4CCN(C(=O)CN5CCC[C@H](C(=O)N6C(C)CCC6C)C5)CC4)cc3c2C(C)C)cc1OC (stereo partly drawn) [Example 300, 1-(4-(2-(3,4-dimethoxyphenyl)-3-isopropyl-1H-indol-5-yl)piperidin-1-yl)-2-((3S)-3-(2,5-dimethylpyrrolidine-1-carbonyl)piperidin-1-yl)ethan-1-one]	85	321
COc1ccc(-c2[nH]c3ccc(C4CCN(C(=O)CN5CCC[C@H](C(=O)N6CCN(C(C)=O)CC6)C5)CC4)cc3c2C(C)C)cc1OC [Example 284, (S)-2-(3-(4-acetylpiperazine-1-carbonyl)piperidin-1-yl)-1-(4-(2-(3,4-dimethoxyphenyl)-3-isopropyl-1H-indol-5-yl)piperidin-1-yl)ethan-1-one]	39	4610
COc1ccc(-c2[nH]c3ccc(C4CCN(CC(=O)NCCCO)CC4)cc3c2C(C)C)cc1OC [Example 277, 2-(4-(2-(3,4-dimethoxyphenyl)-3-isopropyl-1H-indol-5-yl)piperidin-1-yl)-N-(3-hydroxypropyl)acetamide]	16	4980
COc1ccc(-c2[nH]c3ccc(C4CCN(C(=O)CN5CCC[C@@H](C(=O)N6CCCC6)C5)CC4)cc3c2C(C)C)cc1OC [Example 303, (R)-1-(4-(2-(3,4-dimethoxyphenyl)-3-isopropyl-1H-indol-5-yl)piperidin-1-yl)-2-(3-(pyrrolidine-1-carbonyl)piperidin-1-yl)ethan-1-one]	30	1790

Continued, values first:

IC50 (human TLR7) [nM]	IC50 (human TLR9) [nM]	Structure (SMILES)
46	403	CCN(CC)C(=O)C1CCCN(CC(=O)N2CCC(c3ccc4[nH]c(-c5ccc(OC)c(OC)c5)c(C(C)C)c4c3)CC2)C1 (stereo not drawn) [Example 224, 1-(2-(4-(2-(3,4-dimethoxyphenyl)-3-isopropyl-1H-indol-5-yl)piperidin-1-yl)-2-oxoethyl)-N,N-diethylpiperidine-3-carboxamide]
17	1660	COc1ccc(-c2[nH]c3ccc(C4CCN(CC(=O)N5CCCC(CO)C5)CC4)cc3c2C(C)C)cc1OC (stereo not drawn) [Example 275, 2-(4-(2-(3,4-dimethoxyphenyl)-3-isopropyl-1H-indol-5-yl)piperidin-1-yl)-1-(3-(hydroxymethyl)piperidin-1-yl)ethan-1-one]
37	2610	COc1ccc(-c2[nH]c3ccc(C4CCN(C(=O)CN5CCC[C@@H](C(=O)NCC#N)C5)CC4)cc3c2C(C)C)cc1OC [Example 308, (R)—N-(cyanomethyl)-1-(2-(4-(2-(3,4-dimethoxyphenyl)-3-isopropyl-1H-indol-5-yl)piperidin-1-yl)-2-oxoethyl)piperidine-3-carboxamide]
73	48300	COc1ccc(-c2[nH]c3ccc(C4CCN(C(=O)CO)CC4)cc3c2C(C)C)cc1OC [Example 313, 1-(4-(2-(3,4-dimethoxyphenyl)-3-isopropyl-1H-indol-5-yl)piperidin-1-yl)-2-hydroxyethanone]
83	3400	CCN(CC)C(=O)C1CCCN(C(=O)CN2CCC(c3ccc4[nH]c(-c5ccc(OC)c(OC)c5)c(C(C)C)c4c3)CC2)C1 (stereo not drawn) [Example 272, 1-(2-(4-(2-(3,4-dimethoxyphenyl)-3-isopropyl-1H-indol-5-yl)piperidin-1-yl)acetyl)-N,N-diethylpiperidine-3-carboxamide]
55	1510	COc1ccc(-c2[nH]c3ccc(C4CCN(C(=O)CN5CCC(CO)CC5)CC4)cc3c2C(C)C)cc1OC [Example 243, 1-(4-(2-(3,4-dimethoxyphenyl)-3-isopropyl-1H-indol-5-yl)piperidin-1-yl)-2-(4-(hydroxymethyl)piperidin-1-yl)ethan-1-one]
